Measured values from patent US20250082635A1 (Janssen Pharmaceutica NV, priority 2023, published 2025).
Where two headings read alike, the source gives them in different places. Values belong to the molecule of their own block, whether it stands above or below them.

Legend:
clinical [1] = details: both, human, in vivo
Description: (§3) Participants were screened for eligibility for study entry. The diagnosis of hepatic impairment was based on medical history, a Child-Pugh Clinical Assessment Score of 5 to 6 (Grade A, mild hepatic impairment), 7 to 9 (Grade B, moderate hepatic impairment), and 10 to 15 (Grade C, severe hepatic impairment), and the presence of physical signs (liver firmness to palpitation, splenic enlargement, spider angioma, palmar erythema, parotid hypertrophy, testicular atrophy, or gynecomastia) or other modalities (computed tomography, ultrasound, magnetic resonance imaging, radionuclide liver/spleen scan or abdominal laparoscopy, or liver biopsy). The underlying disease leading to hepatic impairment was documented (e.g., hepatitis B, hepatitis C, alcoholic steatohepatitis, nonalcoholic fatty liver disease [hereditary/metabolic], or other). Hepatic encephalopathy grading was done by the Principal Investigator. The individual components of the Child-Pugh Clinical Assessment Score were documented. Participants with liver transplant were excluded.
(§4) The clinical study of Example 1 consisted of a screening phase (within 21 days before study intervention administration); an open-label treatment phase (Day 1 to Day 5) including the end-of-study (EOS) or withdrawal assessments (performed on Day 5 or upon early withdrawal). The study duration for each participant was approximately 4 weeks from screening (Day-21 to Day-1) to EOS assessments.
(§5) Healthy men and women between 18 and 79 years of age, inclusive; with a body mass index (BMI) between 18 and 38 kg/m^2, inclusive, and a body weight of not less than 50 kg were enrolled in the study according to their hepatic function. The degree of hepatic impairment was based on Child Pugh's classification. Using this classification, participants were grouped on the basis of 2 clinical features (hepatic encephalopathy and ascites) and 3 laboratory-based parameters (albumin, bilirubin, and prothrombin time).
(§6) The study included 24 human patients divided into 3 different cohorts: • Cohort 1:8 healthy participants with normal hepatic function and no evidence of liver damage and no evidence of liver damage, • Cohort 2:8 participants with mild hepatic impairment (having a Child-Pugh score of 5 to 6), and • Cohort 3:8 participants with moderate hepatic impairment (Child-Pugh score of 7 to 9).
(§7) Based on hepatic impairment classified during screening, 8 participants with mild hepatic impairment (Cohort 2) and 8 participants with moderate hepatic impairment (Cohort 3) were enrolled. After 8 participants each in Cohort 2 and Cohort 3 had completed study related procedures including the 96 hours PK sample, participants with normal hepatic function (Cohort 1) were enrolled. A group matching procedure was used to demographically match healthy participants having normal hepatic function with respect to sex, age, and weight to the participants enrolled in Cohort 2 and Cohort 3. […] Participants in the control group (Cohort 1) who tested positive for Hepatitis B surface antigen (HbsAg) or Hepatitis C antibodies were not permitted in the study.
(§8) In the normal hepatic function group (Cohort 1), at least 3 participants with an individual value above and at least 3 participants with an individual value below the mean age/mean body weight values of the combined mild (Cohort 2) and moderate (Cohort 3) hepatic impairment groups were enrolled. Two to 4 females were enrolled in each of the cohorts.
(§9) Participants remained in supine position from the predose assessments until 4-hour postdose but were allowed short upright stints for pressing needs (e.g., bathroom visits) and during consumption of meal.

[2] = for mean AUC∞ compared to normal hepatic function / mean Cmax compared to normal hepatic function / mean Cmax,unbound compared to normal hepatic function: arithmetic means
Description: as §3, §4, §5, §6, §7, §8, §9

clinical [3] = details: both, human, plasma, % fu, fraction unbound (mean (SD)), Day 1, 2 h
Description: (§1) Participants entered the study site on the morning of Day 1 and remained there until after collection of the 96 hours PK sample on Day 5. […] In addition, blood samples for determination of the plasma protein binding (PPB) were collected.
(§2) For all cohorts, 2-hours fraction unbound values were used to derive the unbound plasma concentrations and these unbound concentrations were used to derive unbound PK parameters.

plasma protein = assay: clinical; details: Day 1, 2 h
Description: as §1, §2

[4] = Estimated contribution of active metabolites to efficacy of seltorexant; details: active metabolite
[5] = 10 mg, AUClast, geometric mean, Cohort 3 (Test) moderate hepatic impairment, 10 mg dose normalized to 20 mg, total
[6] = 10 mg, AUClast, geometric mean, Cohort 3 (Test) moderate hepatic impairment, 10 mg dose normalized to 20 mg, unbound
[7] = 10 mg, AUC∞ (mean (SD)), Cohort 3 moderate hepatic impairment, 10 mg dose normalized to 20 mg, total in plasma
[8] = 10 mg, AUC∞, geometric mean, Cohort 3 (Test) moderate hepatic impairment, 10 mg dose normalized to 20 mg, total
[9] = 10 mg, AUC∞, geometric mean, Cohort 3 (Test) moderate hepatic impairment, 10 mg dose normalized to 20 mg, unbound
[10] = 10 mg, Cmax, geometric mean, Cohort 3 (Test) moderate hepatic impairment, 10 mg dose normalized to 20 mg, total
[11] = 10 mg, Cmax, geometric mean, Cohort 3 (Test) moderate hepatic impairment, 10 mg dose normalized to 20 mg, unbound
[12] = 10 mg, […], Cohort 3 moderate hepatic impairment, 10 mg dose normalized to 20 mg, total in plasma
[13] = 20 mg, AUClast, geometric mean, Cohort 1 (Reference) normal hepatic function, total
[14] = 20 mg, AUClast, geometric mean, Cohort 1 (Reference) normal hepatic function, unbound
[15] = 20 mg, AUClast, geometric mean, Cohort 2 (Test) mild hepatic impairment, total
[16] = 20 mg, AUClast, geometric mean, Cohort 2 (Test) mild hepatic impairment, unbound
[17] = 20 mg, AUC∞, geometric mean, Cohort 1 (Reference) normal hepatic function, total
[18] = 20 mg, AUC∞, geometric mean, Cohort 1 (Reference) normal hepatic function, unbound
[19] = 20 mg, AUC∞, geometric mean, Cohort 2 (Test) mild hepatic impairment, total
[20] = 20 mg, AUC∞, geometric mean, Cohort 2 (Test) mild hepatic impairment, unbound
[21] = 20 mg, Cmax, geometric mean, Cohort 1 (Reference) normal hepatic function, total
[22] = 20 mg, Cmax, geometric mean, Cohort 1 (Reference) normal hepatic function, unbound
[23] = 20 mg, Cmax, geometric mean, Cohort 2 (Test) mild hepatic impairment, total
[24] = 20 mg, Cmax, geometric mean, Cohort 2 (Test) mild hepatic impairment, unbound
[25] = dose normalized moderate hepatic impairment vs normal, total
[26] = dose normalized moderate hepatic impairment vs normal, unbound
[27] = mild hepatic impairment vs normal, total
[28] = mild hepatic impairment vs normal, unbound
[29] = 10 mg, Cohort 3 moderate hepatic impairment
[30] = 20 mg, Cohort 1 normal hepatic function
[31] = 20 mg, Cohort 2 mild hepatic impairment
[32] = Cohort 1 normal hepatic function
[33] = Cohort 2 mild hepatic impairment
[34] = Cohort 3 moderate hepatic impairment

AUC(0-t) (clinical [1]; [5]): 2380 ng·h/mL
AUC(0-t) (clinical [1]; [6]): 258 ng·h/mL
AUC(0-inf) (clinical [1]; [7]): 2580 ng·h/mL
AUC(0-inf) (clinical [1]; [8]): 2400 ng·h/mL
AUC(0-inf) (clinical [1]; [9]): 262 ng·h/mL
Cmax (clinical [1]; [10]): 253 ng/mL
Cmax (clinical [1]; [11]): 27.5 ng/mL
AUC(0-t) (clinical [1]; [12]): 2550 ng·h/mL
Cmax (clinical [1]; [12]): 261 ng/mL
AUC(0-t) (clinical [1]; [13]): 2310 ng·h/mL
AUC(0-t) (clinical [1]; [14]): 118 ng·h/mL
AUC(0-t) (clinical [1]; [15]): 3950 ng·h/mL
AUC(0-t) (clinical [1]; [16]): 234 ng·h/mL
AUC(0-inf) (clinical [1]; [17]): 2320 ng·h/mL
AUC(0-inf) (clinical [1]; [18]): 119 ng·h/mL
AUC(0-inf) (clinical [1]; [19]): 3980 ng·h/mL
AUC(0-inf) (clinical [1]; [20]): 236 ng·h/mL
Cmax (clinical [1]; [21]): 320 ng/mL
Cmax (clinical [1]; [22]): 16.3 ng/mL
Cmax (clinical [1]; [23]): 355 ng/mL
Cmax (clinical [1]; [24]): 21 ng/mL
AUC(0-t) (clinical [1]; po, 10 mg): 1280 ng·h/mL
Cmax (clinical [1]; po, 10 mg): 131 ng/mL
Tmax (clinical [1]; po, 10 mg): 2.25 h
half-life (clinical [1]; po, 10 mg): 4.07 h
AUC(0-inf) (clinical [1]; po, 20 mg): 4860 ng·h/mL
AUC(0-t) (clinical [1]; po, 20 mg): 4830 ng·h/mL
Cmax (clinical [1]; po, 20 mg): 368 ng/mL
half-life (clinical [1]; po, 20 mg): 3.44 h
mean AUC∞ compared to normal hepatic function [2, 25]: comparable
mean Cmax compared to normal hepatic function [2, 25]: 0.78 fold
mean Cmax,unbound compared to normal hepatic function [2, 26]: 1.71 fold
Cmax compared to normal hepatic function, based on GMR [2, 25]: 0.79 fold
mean AUC∞ compared to normal hepatic function [2, 27]: 1.80 fold
mean Cmax compared to normal hepatic function [2, 27]: comparable
mean Cmax,unbound compared to normal hepatic function [2, 28]: 1.46 fold
Cmax compared to normal hepatic function, based on GMR [2, 27]: ~1.11 fold
AUC∞,unbound compared to normal hepatic function, based on GMR [2, 28]: ~1.99 fold
fraction unbound at 2 h (clinical [3]; [29]): 0.114
fraction unbound at 2 h (clinical [3]; [30]): 0.0545
fraction unbound at 2 h (clinical [3]; [31]): 0.0707
% fb (mean (SD)) (plasma protein; [32]): 94.6 (1.91) %
% fb (mean (SD)) (plasma protein; [33]): 92.9 (4.58) %
% fb (mean (SD)) (plasma protein; [34]): 88.6 (3.84) %
SMILES: Cc1cc(CO)nc(N2CC3CN(C(=O)c4c(F)cccc4-n4nccn4)CC3C2)n1 (stereo not shown) [M12]

AUC(0-t) (clinical [1]; [5]): 620 ng·h/mL
AUC(0-t) (clinical [1]; [6]): 53 ng·h/mL
AUC(0-inf) (clinical [1]; [7]): 683 ng·h/mL
AUC(0-inf) (clinical [1]; [8]): 674 ng·h/mL
AUC(0-inf) (clinical [1]; [9]): 57.6 ng·h/mL
Cmax (clinical [1]; [10]): 41.8 ng/mL
Cmax (clinical [1]; [11]): 3.57 ng/mL
AUC(0-t) (clinical [1]; [12]): 631 ng·h/mL
Cmax (clinical [1]; [12]): 43 ng/mL
AUC(0-t) (clinical [1]; [13]): 778 ng·h/mL
AUC(0-t) (clinical [1]; [14]): 29 ng·h/mL
AUC(0-t) (clinical [1]; [15]): 783 ng·h/mL
AUC(0-t) (clinical [1]; [16]): 36.3 ng·h/mL
AUC(0-inf) (clinical [1]; [17]): 812 ng·h/mL
AUC(0-inf) (clinical [1]; [18]): 30.3 ng·h/mL
AUC(0-inf) (clinical [1]; [19]): 807 ng·h/mL
AUC(0-inf) (clinical [1]; [20]): 37.4 ng·h/mL
Cmax (clinical [1]; [21]): 64.6 ng/mL
Cmax (clinical [1]; [22]): 2.41 ng/mL
Cmax (clinical [1]; [23]): 50 ng/mL
Cmax (clinical [1]; [24]): 2.32 ng/mL
AUC(0-inf) (clinical [1]; po, 10 mg): 342 ng·h/mL
AUC(0-t) (clinical [1]; po, 10 mg): 315 ng·h/mL
Cmax (clinical [1]; po, 10 mg): 21.5 ng/mL
Tmax (clinical [1]; po, 10 mg): 2.5 h
half-life (clinical [1]; po, 10 mg): 10.2 h
AUC(0-inf) (clinical [1]; po, 20 mg): 851 ng·h/mL
AUC(0-t) (clinical [1]; po, 20 mg): 827 ng·h/mL
Cmax (clinical [1]; po, 20 mg): 51.5 ng/mL
Tmax (clinical [1]; po, 20 mg): 2 h
half-life (clinical [1]; po, 20 mg): 13.4 h
mean AUC∞ compared to normal hepatic function [2, 25]: 0.74 fold
mean Cmax compared to normal hepatic function [2, 25]: 0.62 fold
AUC∞ compared to normal hepatic function, based on GMR [2, 25]: ~0.83 fold
AUClast,unbound compared to normal hepatic function, based on GMR [2, 26]: ~1.82 fold
Cmax,unbound compared to normal hepatic function, based on GMR [2, 26]: ~1.48 fold
mean AUC∞ compared to normal hepatic function [2, 27]: comparable
mean Cmax compared to normal hepatic function [2, 27]: 0.75 fold
AUClast,unbound compared to normal hepatic function, based on GMR [2, 28]: ~1.25 fold
Cmax,unbound compared to normal hepatic function, based on GMR [2, 28]: 0.96 fold
fraction unbound at 2 h (clinical [3]; [29]): 0.0901
fraction unbound at 2 h (clinical [3]; [30]): 0.04
fraction unbound at 2 h (clinical [3]; [31]): 0.0568
% fb (mean (SD)) (plasma protein; [32]): 96.0 (1.43) %
% fb (mean (SD)) (plasma protein; [33]): 94.3 (3.95) %
% fb (mean (SD)) (plasma protein; [34]): 91.0 (3.14) %
SMILES: Cc1nc(N2CC3CN(C(=O)c4c(F)cccc4-n4nccn4)CC3C2)nc(C)c1O (stereo not shown) [M16]
contribution to efficacy of seltorexant (activity) [4]: < 4%
